Results: patent US9029378B2, “Substituted bicyclic aromatic carboxamide and urea compounds as vanilloid receptor ligands” (Gruenenthal GmbH, priority 2011, dated 2015)

What follows are compounds tested against T1, vanilloid receptor 1 (VR1/TRPV1 receptor) (Homo sapiens, UniProt Q8NER1) (assay: Functional testing on the vanilloid receptor 1 (FLIPR Ca2+ influx assay, capsaicin)). Conditions: @1 μM; Cap=capsaicin; read-out: inhibition (as a percentage), (f) (human being) Cap.
T1 construct: expressed in transfected cells; host or cells: CHO K1
Format: cell-based, human being
Procedure: Furthermore, preference may be given to compounds according to the invention that cause a 50 percent displacement of capsaicin, which is present at a concentration of 100 nM, in a FLIPR assay with CHO K1 cells which were transfected with the human VR1 gene at a concentration of less than 2,000 nM, preferably less than 1,000 nM, particularly preferably less than 300 nM, most particularly preferably less than 100 nM, even more preferably less than 75 nM, additionally preferably less than 50 nM, most preferably less than 10 nM.
In the process, the Ca^2+ influx is quantified in the FLIPR assay with the aid of a Ca^2+-sensitive dye (type Fluo-4, Molecular Probes Europe BV, Leiden, the Netherlands) in a fluorescent imaging plate reader (FLIPR, Molecular Devices, Sunnyvale, USA), as described hereinafter.
Pharmacological Methods I. Functional Testing Carried Out on the Vanilloid Receptor 1 (VR1/TRPV1 Receptor) […]
The number of cells in the suspension is set to 3×10^5 per mL and 150 μL of this suspension are in each case introduced into a recess in the cell culture plates coated as described hereinbefore. In the incubator the plates are left for two to three days at 37° C., 5% by volume of CO2 and 95% relative humidity. Subsequently, the cells are loaded with 2 μM of Fluo-4 and 0.01% by volume of Pluronic F127 (Molecular Probes Europe BV, Leiden, the Netherlands) in HBSS buffer (Hank's buffered saline solution, Gibco Invitrogen GmbH, Karlsruhe, Germany) for 30 min at 37° C., washed 3 times with HBSS buffer and after further incubation for 15 minutes at room temperature used for Ca^2+ measurement in a FLIPR assay. The Ca^2+-dependent fluorescence is in this case measured before and after the addition of substances (λex=488 nm, λem=540 nm). Quantification is carried out by measuring the highest fluorescence intensity (FC, fluorescence counts) over time.
The FLIPR protocol consists of 2 substance additions. First the compounds to be tested (10 μM) are pipetted onto the cells and the Ca^2+ influx is compared with the control (capsaicin 10 μM). This provides the result in % activation based on the Ca^2+ signal after the addition of 10 μM of capsaicin (CP). After 5 minutes' incubation, 100 nM of capsaicin are applied and the Ca^2+ influx is also determined.
Desensitising agonists and antagonists lead to suppression of the Ca^2+ influx. The % inhibition is calculated compared to the maximum achievable inhibition with 10 μM of capsazepine. Triple analyses (n=3) are carried out and repeated in at least 3 independent experiments (N=4). Starting from the percentage displacement caused by different concentrations of the compounds to be tested of general formula I, IC50 inhibitory concentrations which cause a 50-percent displacement of capsaicin were calculated. Ki values for the test substances were obtained by conversion by means of the Cheng-Prusoff equation (Cheng, Prusoff; Biochem. Pharmacol. 22, 3099-3108, 1973).
The affinity of the compounds of to the invention for the vanilloid receptor 1 (VR1/TRPV1 receptor) was determined as described hereinbefore (pharmacological method I). The compounds of the invention display outstanding affinity to the VR1/TRPV1 receptor (Table 2). In Table 2 the abbreviations below have the following meanings: • Cap=capsaicin • AG=agonist • NE=no effect
The value after the “@” symbol indicates the concentration at which the inhibition (as a percentage) was respectively determined.

T1 sequence (Q8NER1 whole entry): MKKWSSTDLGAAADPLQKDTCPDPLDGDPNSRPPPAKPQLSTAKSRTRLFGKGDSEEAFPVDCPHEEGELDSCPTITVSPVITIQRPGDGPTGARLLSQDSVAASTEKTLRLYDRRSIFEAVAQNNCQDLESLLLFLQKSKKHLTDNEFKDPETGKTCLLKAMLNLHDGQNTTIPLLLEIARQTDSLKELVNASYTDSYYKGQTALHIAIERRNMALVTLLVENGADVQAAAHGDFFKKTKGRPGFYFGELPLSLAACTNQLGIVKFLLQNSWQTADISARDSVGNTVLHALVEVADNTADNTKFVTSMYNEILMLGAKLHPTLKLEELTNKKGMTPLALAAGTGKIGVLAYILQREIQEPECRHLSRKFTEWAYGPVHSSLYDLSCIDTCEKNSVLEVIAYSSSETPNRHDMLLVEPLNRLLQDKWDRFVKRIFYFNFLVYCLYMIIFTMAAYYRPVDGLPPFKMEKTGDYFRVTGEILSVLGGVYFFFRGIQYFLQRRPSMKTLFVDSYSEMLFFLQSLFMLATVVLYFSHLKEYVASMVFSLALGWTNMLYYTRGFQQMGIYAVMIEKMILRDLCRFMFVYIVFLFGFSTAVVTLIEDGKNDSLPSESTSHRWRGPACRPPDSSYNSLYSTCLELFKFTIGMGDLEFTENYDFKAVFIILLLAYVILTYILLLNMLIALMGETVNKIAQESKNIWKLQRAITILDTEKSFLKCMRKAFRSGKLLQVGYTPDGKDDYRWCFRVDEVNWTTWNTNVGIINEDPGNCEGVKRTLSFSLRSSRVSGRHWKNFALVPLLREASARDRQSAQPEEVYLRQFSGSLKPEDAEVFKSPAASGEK

| inhibition at 1 µM | SMILES |
| --- | --- |
| 40% | CC1CCN(c2nc(C(F)(F)F)ccc2CNC(=O)Nc2ccc3ncccc3c2)CC1 [Example 69, 1-((2-(4-Methylpiperidin-1-yl)-6-(trifluoromethyl)pyridin-3-yl)methyl)-3-(quinolin-6-yl)urea] |

Same assay, conditions: @5 μM; Cap=capsaicin; read-out: inhibition (as a percentage), (f) (human being) Cap

| inhibition at 5 µM | SMILES |
| --- | --- |
| 24% | Cc1ccc2cccc(NC(=O)NCc3ccc(C(C)(C)C)cc3N3CCC(C)CC3)c2n1 [Example 74, 1-(4-Tert-butyl-2-(4-methylpiperidin-1-yl)benzyl)-3-(2-methylquinolin-8-yl)urea] |

Same assay, conditions: Cap=capsaicin (100 nM); Ki from IC50 by Cheng-Prusoff equation; read-out: (f) Ki (human being) [nM] Cap

| SMILES | Ki |
| --- | --- |
| CCCCOc1nc(C(F)(F)F)ccc1CNC(=O)Nc1cccc2ncccc12 [Example 67, 1-((2-Butoxy-6-(trifluoromethyl)pyridin-3-yl)methyl)-3-(quinolin-5-yl)urea] | 2 nM |
| O=C(NCc1ccc(C(F)(F)F)nc1OC1CCC1)Nc1cccc2ncccc12 [Example 68, 1-((2-Cyclobutoxy-6-(trifluoromethyl)pyridin-3-yl)methyl)-3-(quinolin-5-yl)urea] | 2 nM |
| Cc1ccc2cc(NC(=O)NCc3ccc(C(F)(F)F)nc3N3CCC(C)CC3)ccc2n1 [Example 70, 1-((2-(4-Methylpiperidin-1-yl)-6-(trifluoromethyl)pyridin-3-yl)methyl)-3-(2-methylquinolin-6-yl)urea] | 68 nM |
| O=C(NCc1ccc(C(F)(F)F)nc1SC1CCCCC1)Nc1ccc2cccnc2c1 [Example 71, 1-((2-(Cyclohexylthio)-6-(trifluoromethyl)pyridin-3-yl)methyl)-3-(quinolin-7-yl)urea] | 5 nM |
| Cc1ccc2cccc(NC(=O)NCc3ccc(C(F)(F)F)nc3N3CCC(C)CC3)c2n1 [Example 73, 1-((2-(4-Methylpiperidin-1-yl)-6-(trifluoromethyl)pyridin-3-yl)methyl)-3-(2-methylquinolin-8-yl)urea] | 24 nM |
| CC1CCN(c2nc(C(C)(C)C)ccc2CNC(=O)Nc2cccc3cnccc23)CC1 [Example 76, 1-((6-Tert-butyl-2-(4-methylpiperidin-1-yl)pyridin-3-yl)methyl)-3-(isoquinolin-5-yl)urea] | 0.1 nM |

Second part, the compound after the results:

| Ki | SMILES |
| --- | --- |
| 4 nM | CN(C)C1(c2ccccc2)CCN(c2nc(C(F)(F)F)ccc2CNC(=O)Nc2cccc3cnccc23)CC1 [Example 77, 1-((2-(4-(Dimethylamino)-4-phenylpiperidin-1-yl)-6-(trifluoromethyl)pyridin-3-yl)methyl)-3-(isoquinolin-5-yl)urea] |
| 1 nM | Cc1nccc2c(NC(=O)NCc3ccc(C(F)(F)F)nc3N3CCC(C)CC3)cccc12 [Example 78, 1-(1-Methylisoquinolin-5-yl)-3-((2-(4-methylpiperidin-1-yl)-6-(trifluoromethyl)pyridin-3-yl)methyl)urea] |
| 0.8 nM | CC1CCN(c2nc(C(F)(F)F)ccc2CNC(=O)Nc2cccc3c(Cl)nccc23)CC1 [Example 79, 1-(1-Chloroisoquinolin-5-yl)-3-((2-(4-methylpiperidin-1-yl)-6-(trifluoromethyl)pyridin-3-yl)methyl)urea] |
| 8 nM | COc1nccc2c(NC(=O)NCc3ccc(C(F)(F)F)nc3N3CCC(C)CC3)cccc12 [Example 80, 1-(1-Methoxyisoquinolin-5-yl)-3-((2-(4-methylpiperidin-1-yl)-6-(trifluoromethyl)pyridin-3-yl)methyl)urea] |
| 1 nM | COc1nc(Cl)cc2c(NC(=O)NCc3ccc(C(F)(F)F)nc3N3CCC(C)CC3)cccc12 [Example 82, 1-(3-Chloro-1-methoxyisoquinolin-5-yl)-3-((2-(4-methylpiperidin-1-yl)-6-(trifluoromethyl)pyridin-3-yl)methyl)urea] |
| 7 nM | CC1CCN(c2nc(C(F)(F)F)ccc2CNC(=O)Nc2ccc3cnccc3c2)CC1 [Example 83, 1-(Isoquinolin-6-yl)-3-((2-(4-methylpiperidin-1-yl)-6-(trifluoromethyl)pyridin-3-yl)methyl)urea] |
| 8 nM | CC1CCN(c2nc(C(F)(F)F)ccc2CNC(=O)Nc2ccc3ccncc3c2)CC1 [Example 84, 1-(Isoquinolin-7-yl)-3-((2-(4-methylpiperidin-1-yl)-6-(trifluoromethyl)pyridin-3-yl)methyl)urea] |
